According to patent publication US10561661B2, “Purine derivative compounds for medical use” (MANROS THERAPEUTICS, priority 2014, dated 2020):
pIC50: −log10 of the molar value. Entries after “also recorded” stand apart in the source; their conditions may differ.

Columns and labels:
DYRK2 = DYRK2 (Homo sapiens, UniProt Q92630); test: IC50 towards inhibition of various kinases: DYRK2; assay type: biochemical
[1] = system: ΔF508 CFTR alveolar macrophages; test: Intracellular Pseudomonas aeruginosa growth (bacterial killing) in ΔF508 CFTR alveolar macrophages, live cell microscopy; assay type: cell-based, mouse; settings: ΔF508 CFTR expressing alveolar macrophages, 20 μM, 6 h observation
Protocol: (§1) FIG. 2. Inhibition of Pseudomonas aeruginosa growth in cftr^−/− and ΔF508 alveolar macrophages by M3 metabolite and derivatives. A comparison of intracellular bacterial growth in single murine alveolar macrophages was carried out using live cell microscopy. Cells were fed DS-Red expressing P. aeruginosa for 30 min (MOI<10). Cells were exposed to M3 metabolite for 20 min prior to exposure to bacteria. Adherent and non-ingested bacteria were then removed by washing and incubation with antibiotics and live alveolar macrophages were observed microscopically for approximately 6 hours.
(§2) The data are presented as means of fluorescence intensities±SEM. Control conditions summarized data obtained from: WT—2 mice, 38 cells; ΔF508—6 mice, 120 cells; cftr^−/− 4 mice, 87 cells. […] In the presence of M3 metabolite we analysed data from: ΔF508—3 mice, 57 cells; cftr^−/−1 mouse, 67 cells. […]

Pseudomonas aeruginosa = test: Growth of P. aeruginosa culture (optical density); assay type: cell-based; settings: 37° C.
Protocol: FIG. 3. Absence of growth inhibition of P. aeruginosa culture by M3 metabolite and derivatives. 1/100 dilution of an overnight culture of P. aeruginosa was introduced in fresh culture medium and cultures were incubated at 37° C. with 20 μM of M3 metabolite or derivatives or 1 μM bafilomycin (negative control). Optical density (600 nm) was measured 2 h and 3.5 h after starting the cultivation, and every 30 min for 2.5 h.
Pseudomonas aeruginosa DsRed from single colony was grown in gentamicin containing TSB overnight at 37° C. with agitation at 300 RPM. Next day it was started the new culture at 1/100 dilution and certain compound of blocker were added to the tubes. We measured optical density (660 nm) of bacterial culture at every 30 minutes.

DYRK3 = DYRK3 (Homo sapiens, UniProt O43781); test: IC50 towards inhibition of various kinases: DYRK3; assay type: biochemical
[2] = system: cftr−/− alveolar macrophages; test: Intracellular Pseudomonas aeruginosa growth (bacterial killing) in cftr−/− alveolar macrophages, live cell microscopy; assay type: cell-based, mouse; settings: 20 μM, 6 h observation
Protocol: as §1, §2

[3] = system: human alveolar macrophages; test: Phagosomal acidification, pHrodo Red BioParticles, plate reader; assay type: cell-based; settings: 10 μM, read over 3 h
Protocol: (1C) Comparative effect of various compounds on phagosomal pH in human alveolar macrophages. Data summary from 3-10 patients for each compound tested at 10 μM. Data was obtained in triplicate for each patient and averaged for all patients with error bars indicating the SEM. Data were normalized to fluorescence changes observed in untreated control cells for each patient before averaging.
Broncho-alveolar lavage from humans was performed on consenting adults following a protocol approved by The University of Chicago Institutional Review Board. The patients included men and women, smokers and non-smokers, undergoing bronchoscopy for cancer biopsies prior to clinical treatment. […]
In brief, broncho-alveolar lavage fluid was strained through a 70 μm sterile cell strainer into a 50 ml conical tube centrifuge tube with a maximum broncho-alveolar lavage volume of 40 ml and a minimum volume of 10 ml followed by centrifugation at 1000×g for 5 min at 4° C. […] Cells were counted on Countess® (Invitrogen) with a distribution cut-off of 20-60 μm and cell viability determined by trypan blue exclusion. […]
After 24 h incubation cells were exposed to pHrodo Red BioParticles® (Life Technologies). Acidification was measured on 96-well plate format with 560 and 580 nm excitation and emission wavelengths at 37° C. in a Synergy MX, BioTek® plate reader. […]

[4] = system: mouse alveolar macrophages; test: Lysosomes fusion: Rhodamine-110 processing and pHrodo-Red E. coli Bioparticles in murine alveolar macrophages; assay type: cell-based
Protocol: We added Rhodamine-110 to the cells prior the pHrodo-Red conjugated E. coli Bioparticles® providing simultaneous uptake of both probes into phagosomes. Lysosomes fusion into nascent phagosomes brings proteases including cathepsin and triggers Rhodamine conversion.
Isolated mouse alveolar macrophages (from cftr^−/− or Δ508F CFTR mice) were cultured adherent on the poly-L-lysine coated glass bottom dishes for 24-48 h. Then they were treated with 10 μM Rhodamine-110 for 20 min at room temperature in the dark with following incubation with 0.1 mg/ml pHrodo-Red conjugated E. coli Bioparticles® for 1 hour at 37° C. […] Then the cells were washed twice with PBS, fixed with 4% PFA. The images were acquired immediately after fixation on Leica SP5 2-photon laser confocal microscope with a 63× (NA1.4) oil objective.
Isolated mouse macrophages were plated on 96-well plate with a density of 3-6,000 cells (20-60 μm diameter) per well, incubated in complete DMEM (10% FBS, 1% penicillin-streptomycin) at 37° C. under 5% CO2 pressure for 24-48 h. The cells were loaded with 5 μM Rhodamine-110 for 20 min at room temperature in the dark, fed with E. coli Bioparticles® conjugated to pHrodo-Red for 1 h at 37° C.

GSK-3α/β = test: IC50 towards inhibition of various kinases: GSK-3α/β; assay type: biochemical
Pim1 = Pim1 (Homo sapiens, UniProt P11309); test: IC50 towards inhibition of various kinases: Pim1; assay type: biochemical
CLK1 = CLK1 (Homo sapiens, UniProt P49759); test: IC50 towards inhibition of various kinases: CLK1; assay type: biochemical
CK2 = CK2 (Homo sapiens, UniProt P68400); test: IC50 towards inhibition of various kinases: CK2; assay type: biochemical
kinase = settings: cited from earlier work
CLK2 = CLK2 (Homo sapiens, UniProt P49760); test: IC50 towards inhibition of various kinases: CLK2; assay type: biochemical
CDK9/cyclin T = CDK9/cyclin T (Homo sapiens, UniProt P50750); test: IC50 towards inhibition of various kinases: CDK9/cyclin T; assay type: biochemical
CK1δ/ε = test: IC50 towards inhibition of various kinases: CK1δ/ε; assay type: biochemical
PfGSK-3 = PfGSK-3 (Plasmodium falciparum, UniProt O77344); test: biochemical; settings: read-out: IC50 value towards inhibition of PfGSK-3
CLK4 = CLK4 (Homo sapiens, UniProt Q9HAZ1); test: IC50 towards inhibition of various kinases: CLK4; assay type: biochemical
DYRK1A = DYRK1A (Homo sapiens, UniProt Q13627); test: IC50 towards inhibition of various kinases: DYRK1A; assay type: biochemical
CDK1/cyclin B = test: IC50 towards inhibition of various kinases: CDK1/cyclin B; assay type: biochemical
DYRK1B = DYRK1B (Homo sapiens, UniProt Q9Y463); test: IC50 towards inhibition of various kinases: DYRK1B; assay type: biochemical
CLK3 = CLK3 (Homo sapiens, UniProt P49761); test: IC50 towards inhibition of various kinases: CLK3; assay type: biochemical
CLK3, sequence (P49761 whole entry, species assumed): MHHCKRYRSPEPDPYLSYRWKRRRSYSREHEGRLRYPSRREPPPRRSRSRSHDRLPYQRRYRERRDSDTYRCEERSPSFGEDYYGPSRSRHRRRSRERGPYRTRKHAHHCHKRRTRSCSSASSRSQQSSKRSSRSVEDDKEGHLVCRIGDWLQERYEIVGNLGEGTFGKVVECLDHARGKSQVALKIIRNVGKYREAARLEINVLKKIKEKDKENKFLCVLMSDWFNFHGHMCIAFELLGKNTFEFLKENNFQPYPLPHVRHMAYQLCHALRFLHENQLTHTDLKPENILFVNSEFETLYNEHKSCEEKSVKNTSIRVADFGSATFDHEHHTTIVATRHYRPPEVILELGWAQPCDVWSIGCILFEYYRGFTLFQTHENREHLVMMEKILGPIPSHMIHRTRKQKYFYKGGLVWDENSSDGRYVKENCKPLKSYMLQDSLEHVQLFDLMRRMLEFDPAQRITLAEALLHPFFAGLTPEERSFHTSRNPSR

DYRK2, sequence (Q92630 whole entry, species assumed): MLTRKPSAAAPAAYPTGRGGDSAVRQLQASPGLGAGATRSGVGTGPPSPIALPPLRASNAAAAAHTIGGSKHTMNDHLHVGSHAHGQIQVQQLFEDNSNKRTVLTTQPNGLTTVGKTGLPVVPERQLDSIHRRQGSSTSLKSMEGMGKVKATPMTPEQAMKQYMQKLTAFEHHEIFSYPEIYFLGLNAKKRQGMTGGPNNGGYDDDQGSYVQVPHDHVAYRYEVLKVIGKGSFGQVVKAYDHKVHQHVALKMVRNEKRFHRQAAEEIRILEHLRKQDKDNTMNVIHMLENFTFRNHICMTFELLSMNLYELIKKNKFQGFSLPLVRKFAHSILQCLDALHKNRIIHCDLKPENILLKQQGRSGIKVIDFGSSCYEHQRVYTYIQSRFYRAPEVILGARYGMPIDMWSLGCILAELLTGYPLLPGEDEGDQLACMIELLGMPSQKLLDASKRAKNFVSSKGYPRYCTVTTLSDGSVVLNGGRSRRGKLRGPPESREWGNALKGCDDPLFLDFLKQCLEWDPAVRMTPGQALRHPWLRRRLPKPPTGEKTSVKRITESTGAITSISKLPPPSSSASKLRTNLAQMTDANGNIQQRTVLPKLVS
DYRK3, sequence (O43781 whole entry, species assumed): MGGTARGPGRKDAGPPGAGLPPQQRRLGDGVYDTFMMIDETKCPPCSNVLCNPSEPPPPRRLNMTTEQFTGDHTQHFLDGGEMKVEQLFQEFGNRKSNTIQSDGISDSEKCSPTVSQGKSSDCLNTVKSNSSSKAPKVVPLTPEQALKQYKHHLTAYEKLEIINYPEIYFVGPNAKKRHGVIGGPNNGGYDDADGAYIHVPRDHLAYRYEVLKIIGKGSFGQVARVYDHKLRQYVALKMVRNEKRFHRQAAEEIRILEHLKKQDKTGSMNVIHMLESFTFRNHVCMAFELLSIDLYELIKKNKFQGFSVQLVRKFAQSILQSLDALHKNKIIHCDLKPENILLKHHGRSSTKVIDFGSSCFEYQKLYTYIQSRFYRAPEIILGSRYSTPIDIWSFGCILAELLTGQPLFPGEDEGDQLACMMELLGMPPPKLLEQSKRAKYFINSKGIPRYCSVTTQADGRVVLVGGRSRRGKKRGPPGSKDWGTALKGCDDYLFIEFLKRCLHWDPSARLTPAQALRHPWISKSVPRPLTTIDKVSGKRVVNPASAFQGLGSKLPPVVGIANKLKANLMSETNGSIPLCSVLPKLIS
CLK4, sequence (Q9HAZ1 whole entry, species assumed): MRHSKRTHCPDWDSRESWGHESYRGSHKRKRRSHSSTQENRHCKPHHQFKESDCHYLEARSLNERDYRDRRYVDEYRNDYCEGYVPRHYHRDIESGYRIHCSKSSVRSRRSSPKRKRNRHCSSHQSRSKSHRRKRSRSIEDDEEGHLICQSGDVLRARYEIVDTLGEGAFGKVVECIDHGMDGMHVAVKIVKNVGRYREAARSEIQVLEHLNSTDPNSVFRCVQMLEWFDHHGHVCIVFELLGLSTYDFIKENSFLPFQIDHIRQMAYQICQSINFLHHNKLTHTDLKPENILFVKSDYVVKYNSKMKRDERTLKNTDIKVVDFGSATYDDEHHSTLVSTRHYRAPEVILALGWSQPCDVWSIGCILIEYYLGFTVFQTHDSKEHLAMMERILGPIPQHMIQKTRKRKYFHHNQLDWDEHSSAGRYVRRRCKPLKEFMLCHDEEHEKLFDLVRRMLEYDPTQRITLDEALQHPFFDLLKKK
Pim1, sequence (P11309 whole entry, species assumed): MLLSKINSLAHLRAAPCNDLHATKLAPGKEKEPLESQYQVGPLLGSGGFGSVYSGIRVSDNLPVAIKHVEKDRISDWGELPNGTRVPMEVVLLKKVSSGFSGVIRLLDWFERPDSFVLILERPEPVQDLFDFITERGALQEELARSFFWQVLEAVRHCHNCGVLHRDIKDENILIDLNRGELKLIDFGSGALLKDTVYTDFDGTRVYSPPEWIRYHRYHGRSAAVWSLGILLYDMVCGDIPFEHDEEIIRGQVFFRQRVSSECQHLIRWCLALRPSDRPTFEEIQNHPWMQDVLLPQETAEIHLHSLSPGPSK
DYRK1B, sequence (Q9Y463 whole entry, species assumed): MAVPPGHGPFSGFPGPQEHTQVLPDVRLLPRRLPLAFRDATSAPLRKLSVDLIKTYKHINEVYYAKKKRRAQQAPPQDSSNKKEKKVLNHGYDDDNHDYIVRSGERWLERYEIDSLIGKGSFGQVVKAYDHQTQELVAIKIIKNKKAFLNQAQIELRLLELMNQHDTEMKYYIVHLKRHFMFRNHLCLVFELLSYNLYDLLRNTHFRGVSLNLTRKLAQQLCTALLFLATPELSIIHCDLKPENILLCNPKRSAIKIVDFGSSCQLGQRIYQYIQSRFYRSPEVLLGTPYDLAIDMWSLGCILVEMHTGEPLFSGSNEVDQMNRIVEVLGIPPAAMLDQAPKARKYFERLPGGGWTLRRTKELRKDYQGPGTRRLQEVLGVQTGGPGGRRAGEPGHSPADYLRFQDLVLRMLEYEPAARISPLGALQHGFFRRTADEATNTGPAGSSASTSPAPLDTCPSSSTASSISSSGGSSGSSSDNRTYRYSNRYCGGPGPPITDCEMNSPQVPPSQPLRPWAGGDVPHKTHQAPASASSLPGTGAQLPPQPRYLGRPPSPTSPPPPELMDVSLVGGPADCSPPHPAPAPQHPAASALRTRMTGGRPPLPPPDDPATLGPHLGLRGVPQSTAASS
CK2, sequence (P68400 whole entry): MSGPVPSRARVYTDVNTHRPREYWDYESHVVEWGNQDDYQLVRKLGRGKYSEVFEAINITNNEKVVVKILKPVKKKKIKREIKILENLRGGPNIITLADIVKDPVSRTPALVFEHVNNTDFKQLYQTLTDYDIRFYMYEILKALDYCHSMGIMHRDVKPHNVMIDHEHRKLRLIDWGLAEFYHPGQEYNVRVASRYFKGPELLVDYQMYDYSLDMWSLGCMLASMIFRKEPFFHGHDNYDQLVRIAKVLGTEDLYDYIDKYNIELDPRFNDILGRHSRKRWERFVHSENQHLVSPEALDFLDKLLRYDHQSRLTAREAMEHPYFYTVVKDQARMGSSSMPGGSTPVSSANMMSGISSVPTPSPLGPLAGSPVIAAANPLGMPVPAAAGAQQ
CDK9/cyclin T, sequence (P50750 whole entry, species assumed): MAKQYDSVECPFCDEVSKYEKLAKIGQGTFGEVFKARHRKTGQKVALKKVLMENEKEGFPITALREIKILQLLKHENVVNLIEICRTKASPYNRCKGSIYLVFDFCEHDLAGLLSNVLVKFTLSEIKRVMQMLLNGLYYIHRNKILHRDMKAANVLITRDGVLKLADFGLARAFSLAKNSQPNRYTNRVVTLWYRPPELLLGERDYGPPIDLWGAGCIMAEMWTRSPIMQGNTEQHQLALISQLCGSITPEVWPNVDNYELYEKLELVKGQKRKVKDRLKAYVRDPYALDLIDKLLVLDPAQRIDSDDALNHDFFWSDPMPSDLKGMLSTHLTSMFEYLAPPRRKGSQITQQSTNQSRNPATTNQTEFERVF
CDK9/cyclin T, sequence (O60563 whole entry partner, species assumed): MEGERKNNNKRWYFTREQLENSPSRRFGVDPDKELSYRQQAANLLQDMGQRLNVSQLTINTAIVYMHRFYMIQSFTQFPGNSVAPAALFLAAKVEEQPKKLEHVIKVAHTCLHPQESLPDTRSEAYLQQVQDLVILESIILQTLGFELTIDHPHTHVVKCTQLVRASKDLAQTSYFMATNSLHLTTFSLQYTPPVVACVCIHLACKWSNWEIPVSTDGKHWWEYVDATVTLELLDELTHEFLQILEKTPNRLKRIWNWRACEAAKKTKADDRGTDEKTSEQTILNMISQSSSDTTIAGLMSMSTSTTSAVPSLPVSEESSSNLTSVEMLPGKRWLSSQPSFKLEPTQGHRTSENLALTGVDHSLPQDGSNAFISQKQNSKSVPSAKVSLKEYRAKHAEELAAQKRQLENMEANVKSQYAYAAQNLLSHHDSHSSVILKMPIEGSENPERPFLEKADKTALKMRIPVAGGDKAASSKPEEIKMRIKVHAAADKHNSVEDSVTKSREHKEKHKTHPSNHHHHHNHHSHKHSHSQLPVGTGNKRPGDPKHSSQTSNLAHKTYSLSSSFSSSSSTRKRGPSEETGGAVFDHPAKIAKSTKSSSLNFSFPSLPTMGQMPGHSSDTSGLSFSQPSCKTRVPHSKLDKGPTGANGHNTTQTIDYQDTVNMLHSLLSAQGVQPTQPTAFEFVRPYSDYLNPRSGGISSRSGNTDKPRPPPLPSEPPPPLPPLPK

In the case of `CC[C@H](CO)Nc1nc(NCc2ccccc2)c2ncn(C(C)C)c2n1` [(R)-roscovitine, 2-(R)-(1-ethyl-2-hydroxyethylamino)-6-benzylamino-9-isopropylpurine, reference compound], the pIC50 (DYRK2) was 5.64, the “rescue of bacterial killing (intracellular P. aeruginosa growth)” value [1] was “significantly rescues bacterial killing” and the “prevention of bacterial growth in culture (optical density)” value (shortened to “prevention of bacterial growth”) (Pseudomonas aeruginosa; 20 μM) was “unable to prevent bacterial growth”. For the same compound, the pIC50 (DYRK3) was 4.23, the “rescue of bacterial killing (intracellular P. aeruginosa growth)” value [2] was “significantly rescues bacterial killing” and the “phagosomal acidification over phagosomal pH observed in untreated cells” value [3] was “significantly enhance acidification”. The “fluorescence from pHrodo-Red conjugated E. coli Bioparticles phagocytosis” value ([4]; FIG. 4A, alveolar macrophages, compared to control) was “decreased” and the “fluorescence resulting from rhodamine-110 processing by lysosomal proteases” value ([4]; FIG. 4A, confocal microscopy, compared to control without compound) was “increased”.

For `CC(C)n1cnc2c(NCc3ccccc3)nc(N[C@@H](CO)C(=O)O)nc21` [Compound 6, (2S)-2-[[6-(benzylamino)-9-isopropyl-purin-2-yl]amino]-3-hydroxy-propanoic acid], the melting point was 120 to 130 °C.

For `CC[C@@H](Nc1nc(NCc2ccccc2)c2ncn(C(C)C)c2n1)C(=O)O` [Metabolite M3, (2R)-2-[[9-isopropyl-6-(phenylmethylamino)purin-2-yl]amino]butanoic acid], the pIC50 (DYRK2) was 4.64, the “rescue of bacterial killing (intracellular P. aeruginosa growth)” value [1] was “at least as efficient as with (R)-roscovitine” and the pIC50 (GSK-3α/β) was less than 4.00. The pIC50 (Pim1) was less than 4.00, the pIC50 (CLK1) was 4.74 and the pIC50 (CK2) was less than 4.00. The kinase inhibiting properties (kinase) was “does not exhibit kinase inhibiting properties”, the “prevention of bacterial growth” value (Pseudomonas aeruginosa; 20 μM) was “unable to prevent bacterial growth” and the pIC50 (CLK2) was 4.85. The pIC50 (CDK9/cyclin T) was less than 5.00, the pIC50 (DYRK3) was less than 4.00 and the pIC50 (CK1δ/ε) was 4.68. The “rescue of bacterial killing (intracellular P. aeruginosa growth)” value [2] was “at least as efficient as with (R)-roscovitine”, the pIC50 (PfGSK-3) was less than 4.00 and the pIC50 (CLK4) was 4.72. The pIC50 (DYRK1A) was 4.72, the “phagosomal acidification over phagosomal pH observed in untreated cells” value [3] was “significantly enhance acidification” and the pIC50 (CDK1/cyclin B) was 4.96. The pIC50 (DYRK1B) was 4.66, the “lysosomes fusion / rhodamine-110 processing by lysosomal proteases” value ([4]; FIG. 4B, 10 μM, mouse alveolar macrophages, versus control cells, listed as M3 metabolite) was “increased; also recorded: enhanced lysosomes fusion” and the pIC50 (CLK3) was 4.28.

For `CO/C1=C\C(C)=C\[C@@H](C)[C@@H](O)[C@@H](C)C/C(C)=C/C=C/[C@H](OC)[C@@H]([C@@H](C)[C@@H](O)[C@H](C)[C@@]2(O)C[C@@H](O)[C@H](C)[C@@H](C(C)C)O2)OC1=O` [bafilomycin], the “prevention of bacterial growth” value (Pseudomonas aeruginosa; 1 μM) was “unable to prevent bacterial growth”.
